# Measured values from PMC3831368 (Bioorganic & medicinal chemistry, 2013).
# Experiments:
# MOR [1] = target: T1, MOR (Mus musculus, UniProt P42866); settings: in vitro radioligand competition binding; cited from earlier work
# MOR [2] = target: T1, MOR; settings: cited from earlier work
# morphine antinociception = settings: cited from earlier work
# W318A MOR = W318A MOR (Mus musculus, UniProt P42866, W318A); experiment: Competition binding to site-directed mutated MOR W318A; settings: read-out: W318A MOR IC50; ± SEM; transient CHO cells
# Chain of W318A MOR (P42866 whole entry W318A): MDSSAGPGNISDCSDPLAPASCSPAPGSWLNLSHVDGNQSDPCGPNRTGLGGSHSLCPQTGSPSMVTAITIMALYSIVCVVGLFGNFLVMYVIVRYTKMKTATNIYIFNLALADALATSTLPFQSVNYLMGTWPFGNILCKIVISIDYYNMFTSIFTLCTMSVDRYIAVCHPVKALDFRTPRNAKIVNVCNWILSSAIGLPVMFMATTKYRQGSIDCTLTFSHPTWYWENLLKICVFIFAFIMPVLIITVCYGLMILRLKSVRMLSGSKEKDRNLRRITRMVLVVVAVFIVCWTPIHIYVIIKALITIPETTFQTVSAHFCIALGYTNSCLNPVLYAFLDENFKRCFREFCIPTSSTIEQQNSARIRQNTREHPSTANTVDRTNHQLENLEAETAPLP
# T1 sequence (P42866 whole entry): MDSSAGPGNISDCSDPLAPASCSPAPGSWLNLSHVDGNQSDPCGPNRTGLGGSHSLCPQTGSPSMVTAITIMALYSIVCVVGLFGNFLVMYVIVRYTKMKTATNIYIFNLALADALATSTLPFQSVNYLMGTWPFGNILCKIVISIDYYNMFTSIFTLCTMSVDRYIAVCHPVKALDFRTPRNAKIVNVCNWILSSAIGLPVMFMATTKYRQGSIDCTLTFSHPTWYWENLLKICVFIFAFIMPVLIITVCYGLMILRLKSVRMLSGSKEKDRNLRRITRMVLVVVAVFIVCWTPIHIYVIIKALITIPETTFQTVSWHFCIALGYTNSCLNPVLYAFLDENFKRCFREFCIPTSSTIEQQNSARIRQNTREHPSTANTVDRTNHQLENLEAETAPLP
Compound,affinity for the MOR (MOR [1]),agonism in the in vitro GTPγS assay (MOR [2]),antagonism in in vivo antinociceptive test against morphine (morphine antinociception),IC50 (W318A MOR) [µM]
O=C(N[C@@H]1CC[C@@]2(O)[C@H]3Cc4ccc(O)c5c4[C@@]2(CCN3CC2CC2)[C@H]1O5)c1ccncc1 [NAP],sub-nanomolar,marginal partial agonism,potent antagonism,–
O=C(N[C@H]1CC[C@@]2(O)[C@H]3Cc4ccc(O)c5c4[C@@]2(CCN3CC2CC2)[C@H]1O5)c1cc2ccccc2cn1 [NAQ],sub-nanomolar,marginal partial agonism,potent antagonism,> 1
